“And” between values parts separate entries of the source, which are not always exact repeats. Equal values may be shown once.
Columns and labels:
[1] = xn = mol fraction of the nth substance listed; settings: 101 kPa

CCCCCCn1cc[n+](C)c1.O=S(=O)([N-]S(=O)(=O)C(F)(F)F)C(F)(F)F
viscosity
Settings | 293.15 K | 298.15 K | 303.15 K | 308.15 K | 313.15 K | 318.15 K | 323.15 K
100 kPa | 89 mPa·s and 85.15 mPa·s | 65.94 mPa·s | 51.91 mPa·s | 41.36 mPa·s | 33.79 mPa·s | – | –
101 kPa | – | – | 58.3 mPa·s | 50.4 mPa·s | 41.4 mPa·s | 35 mPa·s | 28.8 mPa·s

COP(=O)([O-])OC.C[N+]1(CCO)CCCC1
100 kPa
Settings | viscosity [mPa·s]
293.15 K | 1452
298.15 K | 980.6
303.15 K | 687.4
308.15 K | 496.1
313.15 K | 366
318.15 K | 272.8
323.15 K | 210.2

CS(C)=O
Settings | viscosity
293.15 K, 100 kPa | 2.11 mPa·s and 2.23 mPa·s and 2.239 mPa·s
298 K, 101.3 kPa | 2.024 mPa·s
298.15 K, 101 kPa | 1.79 mPa·s
298.15 K, 101.3 kPa | 1.944 mPa·s and 1.926 mPa·s
298.15 K, 101.33 kPa | 1.848 mPa·s
299 K, 101 kPa | 3.143 mPa·s
302.4 K, 101 kPa | 3.676 mPa·s
303.15 K, 100 kPa | 1.79 mPa·s
303.15 K, 101.3 kPa | 1.788 mPa·s and 1.788 mPa·s (2×) and 1.788 mPa·s
308.15 K, 100 kPa | 1.63 mPa·s
308.15 K, 101.33 kPa | 1.498 mPa·s
313.15 K, 100 kPa | 1.5 mPa·s
313.15 K, 101.33 kPa | 1.449 mPa·s and 1.619 mPa·s
318.15 K, 101.3 kPa | 1.31 mPa·s and 1.31 mPa·s
318.15 K, 101.33 kPa | 1.317 mPa·s
323.15 K, 101.3 kPa | 1.284 mPa·s
323.15 K, 101.33 kPa | 1.221 mPa·s and 1.433 mPa·s

C[N+](C)(C)CCC[n+]1ccccc1.N#C[N-]C#N.N#C[N-]C#N
100 kPa
Settings | viscosity
293.15 K | 2191 mPa·s and 2191 mPa·s
298.15 K | 1306 mPa·s
303.15 K | 830.8 mPa·s and 830.8 mPa·s
308.15 K | 557.7 mPa·s
313.15 K | 386 mPa·s and 386 mPa·s
318.15 K | 280.7 mPa·s
323.15 K | 210.2 mPa·s and 210.2 mPa·s

OC1CCCCC1
viscosity
Settings | 293.15 K | 298.15 K | 303.15 K | 308 K | 308.15 K | 313.15 K | 318.15 K | 318.16 K | 323.15 K
100 kPa | 83.29 mPa·s | 58.97 mPa·s | 43.42 mPa·s | – | 33.66 mPa·s and 32.39 mPa·s | 25.52 mPa·s and 25.85 mPa·s | 20.14 mPa·s | 19.5 mPa·s | –
101 kPa | – | – | 23.6 mPa·s and 39.55 mPa·s | 27.95 mPa·s | 27.95 mPa·s | – | – | – | 8.89 mPa·s

CC1(C)OCC(CO)O1 (centres undefined) + OCCO
viscosity [mPa·s], [1]
Settings | x1 = 0.0997 | x1 = 0.2 | x1 = 0.3008 | x1 = 0.3988 | x1 = 0.5014 | x1 = 0.6 | x1 = 0.7003 | x1 = 0.8 | x1 = 0.8997
298.15 K | 15.54 | 14.27 | 12.57 | 11.4 | 10.31 | 9.722 | 9.762 | 9.801 | 9.695
308.15 K | 10.5 | 9.645 | 8.569 | 7.712 | 6.932 | 6.525 | 6.516 | 6.912 | 6.889
318.15 K | 7.537 | 6.894 | 6.139 | 5.409 | 4.898 | 4.639 | 4.882 | 5.057 | 5.085

From the CheMixHub viscosity set
